The test system of test [1] is HepG2. Put plainly: Antiproliferative activity against human HepG2 cells assessed as inhibition of cell growth incubated for 48 hrs by MTT assay. The following applies: HepG2, 48 h. The format is functional, cell-based.
Test [2] relates to HT-29. The experiment in a line: Antiproliferative activity against human HT-29 cells assessed as inhibition of cell growth incubated for 48 hrs by MTT assay. The following applies: HT-29, 48 h. The format is functional, cell-based.
Test [3] relates to 786-0. The experiment in a line: Antiproliferative activity against human 786-0 cells assessed as inhibition of cell growth incubated for 48 hrs by MTT assay. The format is functional, cell-based. The following applies: 786-0, 48 h.
Test [4] concerns BGC-823. Put plainly: Antiproliferative activity against human BGC-823 cells assessed as inhibition of cell growth incubated for 48 hrs by MTT assay. The format is functional, cell-based. The following applies: BGC-823, 48 h.
The test system of test [5] is MCF7. The experiment in a line: Antiproliferative activity against human MCF7 cells assessed as inhibition of cell growth incubated for 48 hrs by MTT assay. The format is functional, cell-based. The following applies: MCF7, 48 h.
Test [6] has as its system A-375. The experiment in a line: Antiproliferative activity against human A-375 cells assessed as inhibition of cell growth incubated for 48 hrs by MTT assay. The format is functional, cell-based. The following applies: A-375, 48 h.
The subject of test [7] is CWR22R. The experiment in a line: Antiproliferative activity against human 22Rv1 cells assessed as inhibition of cell growth incubated for 48 hrs by MTT assay. The format is functional, cell-based. The following applies: 22Rv1, 48 h.
Test [8] relates to SK-OV-3. Put plainly: Antiproliferative activity against human SK-OV-3 cells assessed as inhibition of cell growth incubated for 48 hrs by MTT assay. The format is functional, cell-based. The following applies: SK-OV-3, 48 h.
The test system of test [9] is HCT-116. Put plainly: Induction of apoptosis in human HCT-116 assessed as late apoptotic cells at 100 uM pretreated with Z-VAD-FMK for 30 mins followed by compound addition and measured after 24 hrs by Annexin V-FITC/PI double staining based flow cytometry (reference value: 7.43 %). The format is functional.
The subject of test [10] is HCT-116. Put plainly: Induction of apoptosis in human HCT-116 assessed as late apoptotic cells at 100 uM incubated for 24 hrs Annexin V FITC/PI double staining based flow cytometry (reference value: 8.02 %). The format is functional.
Test [11] relates to HCT-116. Put plainly: Induction of apoptosis in human HCT-116 assessed as necrotic cells at 100 uM pretreated with Z-VAD-FMK for 30 mins followed by compound addition and measured after 24 hrs by Annexin V-FITC/PI double staining based flow cytometry (reference value: 0.84 %). The format is functional.
Test [12] relates to HCT-116. The experiment in a line: Induction of apoptosis in human HCT-116 assessed as early apoptotic cells at 100 uM pretreated with Z-VAD-FMK for 30 mins followed by compound addition and measured after 24 hrs by Annexin V-FITC/PI double staining based flow cytometry (reference value: […]). The format is functional.
The test system of test [13] is HCT-116. Put plainly: Induction of apoptosis in human HCT-116 assessed as viable cells at 100 uM incubated for 24 hrs Annexin V FITC/PI double staining based flow cytometry (Rvb =90.0%). The format is functional. The following applies: read-out: Activity.
Test [14] deals with HCT-116. The experiment in a line: Induction of apoptosis in human HCT-116 assessed as viable cells at 100 uM pretreated with Z-VAD-FMK for 30 mins followed by compound addition and measured after 24 hrs by Annexin V-FITC/PI double staining based flow cytometry (reference value: 90.8%). The format is functional. The following applies: read-out: Activity.
The test system of test [15] is HCT-116. The experiment in a line: Induction of apoptosis in human HCT-116 assessed as early apoptotic cells at 100 uM incubated for 24 hrs Annexin V FITC/PI double staining based flow cytometry (reference value: 1.07 %). The format is functional.
Test [16] relates to HCT-116. Put plainly: Induction of apoptosis in human HCT-116 assessed as necrotic cells at 100 uM incubated for 24 hrs Annexin V FITC/PI double staining based flow cytometry (reference value: 0.94 %). The format is functional.

Where only a bound is given, the exact number is not on record here.

Regarding `CCN(CC)CCCNCc1cc2c([nH]c3ccccc32)c(CNCCCN(CC)CC)n1`, the IC50 in test [1] is above 20 µM; in [2] it was 12.7 µM; in [3] it was 14.9 µM; in test [4] it was above 20 µM; in [5], above 20 µM; in [6] it was above 20 µM. For the same compound, the half-inhibitory concentration (IC50) in [7] was 16.1 µM; in test [8], above 20 µM.

On to `CCCCn1c2ccccc2c2cc(CNCCCN(CC)CC)nc(CNCCCN(CC)CC)c21`, for which the IC50 came to 15.6 µM in test [1]; 8.03 µM in test [2]; 9.32 µM in test [3]; 11.2 µM in test [4]; 10.5 µM in test [5]; 15.8 µM in [6]. Besides, the IC50 was 8.24 µM in [7] and 15.8 µM in [8].

With `CCN(CC)CCCNCc1cc2c3ccccc3n(Cc3ccccc3)c2c(CNCCCN(CC)CC)n1`, the IC50 in [1] amounted to 14.3 µM; in test [2], 5.54 µM; in [3], 10.6 µM; in [4] it was 7.24 µM; in test [5], 15.2 µM; in test [6] it was 7.83 µM. The figures for the IC50 in [7] and in test [8] were 11.2 µM and 9.62 µM, respectively.

Turning to `CCN(CC)CCCNCc1cc2c3ccccc3n(C)c2c(CNCCCN(CC)CC)n1`, the IC50 in [1] was above 20 µM; in test [2], 8.62 µM; in [3] it was 14.2 µM; in test [4] it was 16.8 µM; in [5], above 20 µM; in test [6] it was above 20 µM. For the same compound, the IC50 in [7] was 12.6 µM; in test [8], above 20 µM.

As for `CCN(CC)CCCNCc1cc2c3ccccc3n(Cc3ccc(F)cc3)c2c(CNCCCN(CC)CC)n1`, the IC50 in test [1] was 5.68 µM; in test [2] it was 5.81 µM; in test [3], 5.42 µM; in test [4] it was 8.81 µM; in test [5], 6.92 µM; in test [6], 4.82 µM. Moreover, the IC50 is 9.22 µM in [7] and 7.85 µM in [8].

As to `O=c1[nH]cc(F)c(=O)[nH]1` [FLUOROURACIL], the Activity was found to be 17.3% in [9]; 15.2% in [10]; 4.13% in test [11]; 3.01% in test [12]; 39.6% in [15]; 1.62% in test [16]. In addition, the values for the viability at 100 µM in test [13] and in test [14] were 43.6% and 75.5%, respectively.

Source of the values: ChEMBL document CHEMBL6096670, “Design, synthesis and biological evaluation of novel β-carbolines as antitumor agents via targeting autophagy in colorectal cancer” (Eur J Med Chem, 2025).
